Calls of active or inactive are those of the source. No cut-off for these calls is given here.
What was measured:
Mus musculus [1] = experiment: Analgesic activity in Mus musculus albino (mouse) assessed as inhibition of formalin-induced paw licking behavior in both phases of formalin response at 25 mg/kg, ip administered 30 min before formalin challenge; assay type: functional, organism-based; design: dose 25 mg/kg
Mus musculus [2] = experiment: Analgesic activity in Mus musculus albino (mouse) assessed as latency time at 25 mg/kg, ip after 30 min by hot-plate test; assay type: functional; details: route intraperitoneal
Mus musculus [3] = experiment: Analgesic activity in Mus musculus albino (mouse) assessed as latency time at 25 mg/kg, ip after 30 min in presence of 2 mg/kg, ip of mecamylamine by tail-flick test; assay type: functional
Mus musculus [4] = experiment: Analgesic activity in Mus musculus albino (mouse) assessed as latency time at 25 mg/kg, ip after 30 min by tail-flick test; assay type: functional; details: route intraperitoneal
Mus musculus [5] = experiment: Analgesic activity in Mus musculus albino (mouse) assessed as latency time at 17.5 mg/kg, ip after 30 min by hot-plate test; assay type: functional; details: route intraperitoneal
Mus musculus [6] = experiment: Analgesic activity in Mus musculus albino (mouse) assessed as latency time at 17.5 mg/kg, ip after 30 min by tail-flick test; assay type: functional; details: route intraperitoneal

SMILES	Activity (Mus musculus [1])	Time (Mus musculus [2]) [s]	Time (Mus musculus [3]) [s]	Time (Mus musculus [4]) [s]	Time (Mus musculus [5]) [s]	Time (Mus musculus [6]) [s]
Clc1ccccc1-c1nnc(-c2ccncc2)[nH]1	Active	13.12	5.12	11.2		
Cc1cc(C)n(C(=O)c2ccncc2)n1		8.11		6.4		
O=[N+]([O-])c1ccccc1-c1nnc(-c2ccncc2)[nH]1	Active	15.1	5.23	11.8		
Cc1cc(=O)[nH]n1C(=O)c1ccncc1		7.51		5.7		
CC(=O)N1N=C(c2ccncc2)OC1c1ccccc1Cl (stereo not drawn)		7.81		6.03		
c1ccc(-c2nnc(-c3ccncc3)[nH]2)cc1		7.81		5.33		
Clc1ccccc1-c1nnc(-c2cccnc2)[nH]1		8.55		5.53		
Cc1cc(C)n(C(=O)c2cccnc2)n1	Active	8.3	5.18	7.69		
c1ccc(-c2n[nH]c(-c3cccnc3)n2)cc1		7.5		4.73		
CC(=O)N1N=C(c2ccncc2)OC1c1ccccc1[N+](=O)[O-] (stereo not drawn)		7.48		4.76		
CC(=O)N1N=C(c2cccnc2)OC1c1ccccc1 (stereo not drawn)	Active	10.03	5.13	8.44		
Cc1cc(=O)[nH]n1C(=O)c1cccnc1		7.54		5.26		
O=[N+]([O-])c1ccccc1-c1nnc(-c2cccnc2)[nH]1		8.47		6.15		
CC(=O)N1N=C(c2cccnc2)OC1c1ccccc1Cl (stereo not drawn)		7.77		5.16		
Cc1n[nH]c(-c2ccncc2)n1	Active	9.49	5.22	7.62		
CC(C)=CCN1CC[C@@]2(C)c3cc(O)ccc3C[C@@H]1[C@@H]2C (relative stereo)					19.89	12.84
Cc1nnc(-c2cccnc2)[nH]1	Active	9.65	5.17	7.99		
CC(=O)N1N=C(c2ccncc2)OC1C (stereo not drawn)	Active	12.93	5.14	11.03		
CC(=O)N1N=C(c2cccnc2)OC1C (stereo not drawn)	Active	10.03	5.14	8.95		
CC(=O)N1N=C(c2cccnc2)OC1c1ccccc1[N+](=O)[O-] (stereo not drawn)		7.29		4.93		
CC(=O)N1N=C(c2ccncc2)OC1c1ccccc1 (stereo not drawn)		7.78		6.03		
